# Results: ChEMBL document CHEMBL4049435, “Development of a Series of Kynurenine 3-Monooxygenase Inhibitors Leading to a Clinical Candidate for the Treatment of Acute Pancreatitis” (J Med Chem, 2017)
# Columns and labels:
# [1] = Permeability of the compound by PAMPA; type: physicochemical; settings: read-out: permeability
# serum albumin = serum albumin (Homo sapiens, UniProt P02768); experiment: Binding affinity to human serum albumin by HPLC analysis; type: ADME; settings: read-out: PB (converted)
# Sequence of serum albumin (P02768 whole entry): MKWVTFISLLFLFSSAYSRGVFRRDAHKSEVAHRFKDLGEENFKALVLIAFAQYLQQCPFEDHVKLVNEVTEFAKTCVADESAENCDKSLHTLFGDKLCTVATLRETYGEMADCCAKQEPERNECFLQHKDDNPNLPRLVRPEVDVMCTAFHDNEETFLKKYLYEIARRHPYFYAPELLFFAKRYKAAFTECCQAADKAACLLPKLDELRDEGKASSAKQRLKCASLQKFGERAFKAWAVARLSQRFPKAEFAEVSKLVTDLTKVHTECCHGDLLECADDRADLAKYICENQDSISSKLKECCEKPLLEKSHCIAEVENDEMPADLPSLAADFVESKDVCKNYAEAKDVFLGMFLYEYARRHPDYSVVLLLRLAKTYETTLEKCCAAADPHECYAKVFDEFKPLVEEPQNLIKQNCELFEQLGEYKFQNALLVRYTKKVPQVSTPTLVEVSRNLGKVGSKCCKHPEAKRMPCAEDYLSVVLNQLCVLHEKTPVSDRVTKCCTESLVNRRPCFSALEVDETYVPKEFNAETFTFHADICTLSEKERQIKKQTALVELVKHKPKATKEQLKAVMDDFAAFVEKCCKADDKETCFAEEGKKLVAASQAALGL
# [2] = Lipophilicity, log D of the compound at pH 7.4 by RP-HPLC analysis; type: physicochemical; settings: buffer
# [3] = Stability of the compound in presence of light measured after 12 hrs; type: physicochemical; settings: read-out: Stability
# [4] = Protein binding in Han-Wistar rat plasma at 1 mg/kg, iv by LC-MS/MS analysis; type: ADME, organism-based; settings: read-out: PPB (converted)
# [5] = Volume of distribution at steady state in Han-Wistar rat at 1 mg/kg, iv by LC-MS/MS analysis; type: ADME, organism-based; settings: in vivo, read-out: Vdss
# [6] = Clearance in Han-Wistar rat blood at 1 mg/kg, iv by LC-MS/MS analysis; type: ADME, organism-based; settings: whole blood
# [7] = Half life in Han-Wistar rat at 1 mg/kg, iv by LC-MS/MS analysis; type: ADME, organism-based; settings: in vivo
# [8] = Half life of the compound at pH 6 under oxidative condition; type: physicochemical
# [9] = Protein binding in human plasma; type: ADME, cell-free; settings: read-out: PPB (converted)
Structure (SMILES),Papp [1] [×10⁻⁶ cm/s],fraction unbound (serum albumin),logD [2],fraction unbound [9],also measured
C[C@H](Oc1cc2oc(=O)n(CCC(=O)O)c2cc1Cl)c1ccccn1.NC(CO)(CO)CO,< 0.3,0.084,1.79,,
CC(C)Cc1cc2oc(=O)n(CCC(=O)O)c2cc1Cl.NC(CO)(CO)CO,< 1,0.008,3.03,,
C[C@@H](Oc1cc2onc(CCC(=O)O)c2cc1Cl)c1ccc(Cl)cn1,,,,,remaining at 12 h [3]: 99.5%; fraction unbound [4]: 0.003; Vd [5]: 0.26 L/kg; clearance [6]: 0.35 mL/min/kg; half-life [7]: 8.7 h; half-life [8]: > 1000 h
O=C(O)CCn1c(=O)oc2cc(OCC3CC3)c(Cl)cc21,,,,,remaining at 12 h [3]: 105%; fraction unbound [4]: 0.098; Vd [5]: 0.26 L/kg; clearance [6]: 4.1 mL/min/kg; half-life [7]: 0.68 h; half-life [8]: > 1000 h
C[C@@H](Oc1cc2oc(=O)n(CCC(=O)O)c2cc1Cl)c1ccc(F)cn1.NC(CO)(CO)CO,3.1,0.06,1.98,,
NC(CO)(CO)CO.O=C(O)CCn1c(=O)oc2cc(OCCN3CCCC3)c(Cl)cc21,< 0.3,0.849,-0.26,,
CCOc1cc2oc(=O)n(CCC(=O)O)c2cc1Cl,,,,,remaining at 12 h [3]: 99.5%; fraction unbound [4]: 0.184; Vd [5]: 0.36 L/kg; clearance [6]: 16 mL/min/kg; half-life [7]: 0.43 h; half-life [8]: > 1000 h
O=C(O)CCn1c(=O)oc2cc(OC3CC3)c(Cl)cc21,,,,,remaining at 12 h [3]: 100%; fraction unbound [4]: 0.097; Vd [5]: 0.29 L/kg; clearance [6]: 9.4 mL/min/kg; half-life [7]: 0.39 h; half-life [8]: > 1000 h
C[C@@H](Oc1cc2onc(CCC(=O)O)c2cc1Cl)c1ccc(F)cn1,,0.017,2.47,,
C[C@@H](Oc1cc2c(cc1Cl)N(CCC(=O)O)C(=O)CO2)c1ccccn1,,,1.56,0.075,
CCc1cc2oc(=O)n(CCC(=O)O)c2cc1Cl.NC(CO)(CO)CO,1 to 2.2,0.026,1.94,0.013,
CC(Oc1cc2oc(=O)n(CCC(=O)O)c2cc1Cl)c1ccccn1.NC(CO)(CO)CO (stereo not drawn),< 0.3,0.129,1.86,0.183,
NC(CO)(CO)CO.O=C(O)CCn1c(=O)oc2cc(OCC3CCC3)c(Cl)cc21,1.2,0.019,2.9,0.019,
COCCOc1cc2oc(=O)n(CCC(=O)O)c2cc1Cl.NC(CO)(CO)CO,< 0.3,0.558,0.88,0.293,
C[C@@H](Oc1cc2oc(=O)n(CCC(=O)O)c2cc1Cl)c1ncco1.NC(CO)(CO)CO,< 0.3,0.227,1.11,,
C[C@@H](Oc1cc2cnn(CCC(=O)O)c2cc1Cl)c1ccccn1,,,1.7,0.099,
C[C@@H](Oc1cc2oc(=O)n(CCC(=O)O)c2cc1Cl)c1ncccn1.NC(CO)(CO)CO,< 0.3,0.409,0.83,,
Cc1ccnc([C@@H](C)Oc2cc3oc(=O)n(CCC(=O)O)c3cc2Cl)c1.NC(CO)(CO)CO,< 0.3,0.056,2.15,,
O=C(O)CCn1c(=O)oc2cc(OCc3ccccc3)c(Cl)cc21,,0.017,2.71,,
C[C@@H](Oc1cc2oc(=O)n(CCC(=O)O)c2cc1Cl)c1ccc(Cl)cn1.NC(CO)(CO)CO,6,0.021,2.65,0.01,
C[C@@H](Oc1cc2sc(=O)n(CCC(=O)O)c2cc1Cl)c1ccccn1,,,1.81,,
COc1cc2oc(=O)n(CCC(=O)O)c2cc1Cl,< 0.3,0.11,,,
Cc1ccc([C@@H](C)Oc2cc3oc(=O)n(CCC(=O)O)c3cc2Cl)nc1.NC(CO)(CO)CO,2.2,,2.02,0.022,
Cc1cccc([C@@H](C)Oc2cc3oc(=O)n(CCC(=O)O)c3cc2Cl)n1.NC(CO)(CO)CO,2.1,0.068,2.12,,
C[C@@H](Oc1cc2ccn(CCC(=O)O)c2cc1Cl)c1ccccn1,,,2.17,,
